Experimental findings from US9750259B2, “Pyroxasulfone and glutamine synthesis inhibitor compositions for weed control” (Valent U.S.A., priority 2014, dated 2017) are described below.

The subject of one assay is Horseweed. Put plainly: Field test in Roundup Ready soybeans: control of Horseweed, reading 21 DAT. Conditions: all treatments with MSO 1% v/v, glufosinate 593, pyroxasulfone 90, flumiclorac-pentyl 73 g active/ha, % printed in b55 only. The format is in vivo, Conyza Canadensis. On the procedure:
(§1) The following field test was conducted. Roundup Ready soybeans (Glycine max) were used in the test as the crop plant. All of the treatments contained MSO concentrate oil at 1% v/v.
(§2) When the test began, the test plot had weeds that were less than […] tall. Treatments were administered at the concentrations as follows. Glufosinate-ammonium was administered at 593 grams/hectare. Pyroxasulfone was administered at 90 grams/hectare throughout the experiment.
(§3) On 14 DAT, readings were taken to determine the survival of Palmer Amaranth. On 21 DAT, readings were taken to determine the residual control of Palmer Amaranth and Horseweed. Survival ratings were taken by counting the number of alive and dead plants at the time of the reading. All data was analyzed using Bartlett's test and with p value of […] for determining significance of the results. The Effect of Glufosinate and Pyroxasulfone on Weeds.”

Assay [1] relates to Palmer Amaranth. Put plainly: Field test in Roundup Ready soybeans: residual control of Palmer Amaranth, reading 21 DAT. The format is in vivo, Amaranthus palmeri. Conditions: all treatments with MSO 1% v/v, glufosinate 593, pyroxasulfone 90, flumiclorac-pentyl 73 g active/ha, % printed in b55 only. How it is done: as §1, §2, §3
In assay [2] the test system is Palmer Amaranth. Put plainly: Field test in Roundup Ready soybeans: control (kill) of emerged Palmer Amaranth, reading 14 DAT. The format is in vivo, Amaranthus palmeri. To be noted: post emergence, all treatments with MSO 1% v/v, glufosinate 593, pyroxasulfone 90, flumiclorac-pentyl 73 g active/ha, % printed in b55 only. On the procedure:
as §1, §2, §3

Take `CP(=O)(O)CCC(N)C(=O)O` (racemic) [glufosinate, DL-4-[hydroxy](methyl)phosphinoyl]-DL-homoalaninate]: the “Horseweed (bolted) control / kill rate” value in the assay on Horseweed worked out at 75%. Further, in the assay with Palmer Amaranth [1], the “Residual control of Palmer amaranth” value is on record as 93%. The “Palmer amaranth (<2″ tall) control / kill rate” value with Palmer Amaranth [2] turned out to be 90%.
With `Cn1nc(C(F)(F)F)c(CS(=O)(=O)C2=NOC(C)(C)C2)c1OC(F)F` [pyroxasulfone, 3-[[[5-(difluoromethoxy)-1-methyl-3 (trifluoromethyl)-1H-pyrazol-4-yl]methyl]sulfonyl]-4,5-dihydro-5,5-dimethylisoxazole], in the assay on Palmer Amaranth [1], the “Residual control of Palmer amaranth” value is reported as 99%. Moreover, the “Palmer amaranth (<2″ tall) control / kill rate” value in the assay on Palmer Amaranth [2] worked out at 5%.
